Patent US9957271B2, “Substituted bicyclic aza-heterocycles and analogues as sirtuin modulators” (GlaxoSmithKline, LLC, priority 2012, dated 2018)

Legend:
[1] = molecular target: T1, SIRT1 (Homo sapiens, UniProt Q96EB6); assay: TAMRA based mass spectrometry assay of SIRT1 activity; assay type: biochemical; details: for Emax: read-out: TAMRA % Fold Act
T1 sequence (Q96EB6 1-747): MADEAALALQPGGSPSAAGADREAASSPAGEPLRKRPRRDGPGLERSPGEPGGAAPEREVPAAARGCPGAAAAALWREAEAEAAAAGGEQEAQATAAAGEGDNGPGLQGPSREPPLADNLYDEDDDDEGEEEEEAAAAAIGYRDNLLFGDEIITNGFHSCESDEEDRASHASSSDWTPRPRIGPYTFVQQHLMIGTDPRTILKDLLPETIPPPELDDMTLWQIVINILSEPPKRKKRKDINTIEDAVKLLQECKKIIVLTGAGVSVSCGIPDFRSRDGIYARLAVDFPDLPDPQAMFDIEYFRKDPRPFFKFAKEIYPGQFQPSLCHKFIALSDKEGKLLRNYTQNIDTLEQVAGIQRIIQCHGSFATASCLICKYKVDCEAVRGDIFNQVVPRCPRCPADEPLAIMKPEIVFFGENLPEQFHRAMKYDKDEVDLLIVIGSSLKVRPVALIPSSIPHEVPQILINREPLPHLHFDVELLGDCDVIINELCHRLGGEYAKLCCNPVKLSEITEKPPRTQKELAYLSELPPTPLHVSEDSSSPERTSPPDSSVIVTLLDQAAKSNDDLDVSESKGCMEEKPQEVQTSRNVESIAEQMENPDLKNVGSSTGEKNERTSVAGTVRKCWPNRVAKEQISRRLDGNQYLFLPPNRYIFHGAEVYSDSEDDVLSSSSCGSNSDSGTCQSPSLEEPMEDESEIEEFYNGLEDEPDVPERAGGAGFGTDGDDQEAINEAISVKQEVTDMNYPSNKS
Procedure, shortened: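 Recombinant N-terminal His-tagged human SIRT1 (10 nM, E. coli) incubated 25 min at 25 °C with 0.5 μM 5TMR-labelled p53-derived acetyl-peptide and 120 μM βNAD+ in Tris-acetate pH 8 buffer with DTT and 0.05% BSA, compound at varying concentrations. Stopped with formic acid; deacetylated peptide or OAADPR measured by mass spectrometry relative to DMSO controls.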

[2] = molecular target: T1, SIRT1; assay: Trp mass spectrometry assay of SIRT1 activity; assay type: biochemical; details: for Emax: read-out: Trp % Fold Act
Procedure, shortened: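 His-tagged SIRT1 expressed in E. coli BL21(DE3), 10 nM, incubated 25 min at 25° C. with 0.5 μM Ac-RHKK(Ac)W-NH2 peptide and 120 μM βNAD+ in 50 mM HEPES pH 7.5, […], 1 mM DTT, 0.05% BSA; formic acid stop. OAADPR or deacetylated peptide measured by mass spectrometry; EC1.5 and percent maximum activation versus DMSO control.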

[3] = TAMRA assay, concentration giving 150% activation of SIRT1
[4] = TAMRA assay, percent maximum fold activation
[5] = Trp assay, concentration giving 150% activation of SIRT1
[6] = Trp assay, percent maximum fold activation
[7] = TAMRA peptide substrate, concentration giving 150% activation of SIRT1
[8] = TAMRA peptide substrate, percent maximum fold activation
[9] = Trp peptide substrate, concentration giving 150% activation of SIRT1
[10] = Trp peptide substrate, percent maximum fold activation
[11] = concentration of test compound giving 150% activation of SIRT1, TAMRA peptide substrate
[12] = percent maximum fold activation of SIRT1, TAMRA peptide substrate
[13] = concentration of test compound giving 150% activation of SIRT1, Trp peptide substrate
[14] = percent maximum fold activation of SIRT1, Trp peptide substrate

SMILES | TAMRA EC1.5 (μM) [1, 3] | Emax [1, 4] | Trp EC1.5 (μM) [2, 5] | Emax [2, 6] | TAMRA EC1.5 [1, 7] | Emax [1, 8] | Trp EC1.5 [2, 9] | Emax [2, 10] | further results
COc1cccc(NC(=O)c2cnn3ccc(-c4ccccc4OC(F)(F)F)nc23)n1 [Compound 536] |  |  |  |  | A (EC1.5<1 μM) | ≥ 350% | A (EC1.5<1 μM) | < 350% | 
O=C(Nc1cnn2ccc(-c3ccccc3C(F)(F)F)nc12)c1nc(C(F)(F)F)cs1 [Compound 809] | A (EC1.5<1 μM) | ≥ 350% | C (EC1.5>25 μM) | < 350% |  |  |  |  | 
O=C(Nc1ccnc(N2CCC2)c1)c1cnc2ccc(-c3c(F)cccc3F)nn12 [Compound 170] |  |  |  |  |  |  |  |  | TAMRA EC1.5 (μM) [1, 11]: A (EC1.5<1 μM); Emax [1, 12]: < 350%; Trp EC1.5 (μM) [2, 13]: B (EC1.5 1-25 μM); Emax [2, 14]: < 350%
Cc1cc(C)nc(C(=O)Nc2cnc3ccc(N4CC[C@H](F)C4)nn23)c1 [Compound 566] |  |  |  |  | B (EC1.5 1-25 μM) | ≥ 350% | B (EC1.5 1-25 μM) | < 350% | 
Cc1ccc(NC(=O)c2cnn3ccc(-c4ccccc4OC(F)(F)F)nc23)nn1 [Compound 633] | A (EC1.5<1 μM) | ≥ 350% | B (EC1.5 1-25 μM) | < 350% |  |  |  |  | 
O=C(Nc1ccc(F)cn1)c1cnn2ccc(-c3ccccc3C(F)(F)F)nc12 [Compound 518] |  |  |  |  | A (EC1.5<1 μM) | ≥ 350% | B (EC1.5 1-25 μM) | < 350% | 
O=C(Nc1ccncc1F)c1cnn2ccc(-c3ccccc3OC(F)(F)F)nc12 [Compound 606] | A (EC1.5<1 μM) | ≥ 350% | A (EC1.5<1 μM) | < 350% |  |  |  |  | 
O=C(Nc1cnc2ccc(-c3ccccc3C(F)(F)F)nn12)c1cccnc1 [Compound 86] |  |  |  |  |  |  |  |  | TAMRA EC1.5 (μM) [1, 11]: C (EC1.5>25 μM); Emax [1, 12]: < 350%; Trp EC1.5 (μM) [2, 13]: C (EC1.5>25 μM); Emax [2, 14]: < 350%
O=C(Nc1cccc(N2CCOCC2)n1)c1cnc2ccc(N3CCCC(C(F)(F)F)C3)nn12 (centres unmarked) [Compound 578] |  |  |  |  | A (EC1.5<1 μM) | ≥ 350% | A (EC1.5<1 μM) | ≥ 350% | 
O=C(Nc1cccc(CN2CCOCC2)n1)c1cnc2ccc(-c3ccc(F)cc3F)nn12 [Compound 41] |  |  |  |  |  |  |  |  | TAMRA EC1.5 (μM) [1, 11]: B (EC1.5 1-25 μM); Emax [1, 12]: < 350%; Trp EC1.5 (μM) [2, 13]: C (EC1.5>25 μM); Emax [2, 14]: < 350%
O=C(Nc1ccnc(N2CCOCC2)c1)c1nnc2ccc(-c3ccccc3C(F)F)nn12 [Compound 68] |  |  |  |  |  |  |  |  | TAMRA EC1.5 (μM) [1, 11]: B (EC1.5 1-25 μM); Emax [1, 12]: < 350%; Trp EC1.5 (μM) [2, 13]: B (EC1.5 1-25 μM); Emax [2, 14]: < 350%
O=C(Nc1cnn2ccc(-c3ccccc3OC(F)(F)F)nc12)c1ncccc1F [Compound 754] | A (EC1.5<1 μM) | ≥ 350% | B (EC1.5 1-25 μM) | < 350% |  |  |  |  | 
O=C(Nc1cccc(CN2CCOCC2)n1)c1cnc2ccc(-c3c(F)cccc3F)nn12 [Compound 172] |  |  |  |  |  |  |  |  | TAMRA EC1.5 (μM) [1, 11]: B (EC1.5 1-25 μM); Emax [1, 12]: ≥ 350%; Trp EC1.5 (μM) [2, 13]: C (EC1.5>25 μM); Emax [2, 14]: < 350%
Cc1cc(C)nc(NC(=O)c2cnc3ccc(-c4ccccc4C(F)(F)F)nn23)c1 [Compound 101] |  |  |  |  |  |  |  |  | TAMRA EC1.5 (μM) [1, 11]: A (EC1.5<1 μM); Emax [1, 12]: ≥ 350%; Trp EC1.5 (μM) [2, 13]: B (EC1.5 1-25 μM); Emax [2, 14]: ≥ 350%
Cc1cc(-c2ccccc2C(F)(F)F)nn2c(C(=O)Nc3ccncc3F)cnc12 [Compound 541] |  |  |  |  | A (EC1.5<1 μM) | ≥ 350% | B (EC1.5 1-25 μM) | ≥ 350% | 
O=C(Nc1cccc(CN2CCOCC2)n1)c1cnc2ccc(-c3ccccc3C(F)F)nn12 [Compound 34] |  |  |  |  |  |  |  |  | TAMRA EC1.5 (μM) [1, 11]: A (EC1.5<1 μM); Emax [1, 12]: ≥ 350%; Trp EC1.5 (μM) [2, 13]: B (EC1.5 1-25 μM); Emax [2, 14]: < 350%

Now from value to compound, other results behind:

TAMRA EC1.5 (μM) [1, 3] | Emax [1, 4] | Trp EC1.5 (μM) [2, 5] | Emax [2, 6] | TAMRA EC1.5 [1, 7] | Emax [1, 8] | Trp EC1.5 [2, 9] | Emax [2, 10] | SMILES | further results
A (EC1.5<1 μM) | ≥ 350% | A (EC1.5<1 μM) | < 350% |  |  |  |  | Cc1cncc(NC(=O)c2c(C)nn3ccc(-c4ccccc4Br)nc23)c1 [Compound 827] | 
A (EC1.5<1 μM) | ≥ 350% | A (EC1.5<1 μM) | < 350% |  |  |  |  | Cc1nn2ccc(-c3ccccc3C(F)(F)F)nc2c1C(=O)Nc1ccc(F)cn1 [Compound 686] | 
B (EC1.5 1-25 μM) | < 350% | C (EC1.5>25 μM) | < 350% |  |  |  |  | Cc1nc(C(=O)Nc2c(C)nc3ccc(-c4ccccc4Cl)nn23)cs1 [Compound 351] | 
 |  |  |  | A (EC1.5<1 μM) | ≥ 350% | B (EC1.5 1-25 μM) | ≥ 350% | Cc1cc(NC(=O)c2c(C)nc3c(C)cc(-c4ccccc4C(F)(F)F)nn23)nc(C)n1 [Compound 475] | 
 |  |  |  | A (EC1.5<1 μM) | ≥ 350% | A (EC1.5<1 μM) | < 350% | Cc1nc(C(=O)Nc2cnc3c(C)cc(-c4ccccc4C(F)(F)F)nn23)c(C)s1 [Compound 413] | 
 |  |  |  | A (EC1.5<1 μM) | ≥ 350% | B (EC1.5 1-25 μM) | ≥ 350% | Cc1nc2ccc(-c3ccccc3OC(F)(F)F)nn2c1C(=O)Nc1ccncn1 [Compound 469] | 
B (EC1.5 1-25 μM) | ≥ 350% | B (EC1.5 1-25 μM) | < 350% |  |  |  |  | Cc1cc(C)nc(NC(=O)c2cnn3ccc(-c4ccccc4OC(F)(F)F)nc23)n1 [Compound 688] | 
A (EC1.5<1 μM) | ≥ 350% | A (EC1.5<1 μM) | ≥ 350% |  |  |  |  | Cc1cc(-c2ccccc2C(F)(F)F)nn2c(C(=O)Nc3ccnc(OC(C)C)n3)cnc12 [Compound 615] | 
B (EC1.5 1-25 μM) | ≥ 350% | C (EC1.5>25 μM) | < 350% |  |  |  |  | Cc1scnc1C(=O)Nc1cnn2ccc(-c3ccccc3C(F)(F)F)nc12 [Compound 803] | 
 |  |  |  | B (EC1.5 1-25 μM) | < 350% | C (EC1.5>25 μM) | < 350% | Cc1nc2ccc(-c3ccccc3OC(F)(F)F)nn2c1C(=O)Nc1ccc(F)cn1 [Compound 472] | 
 |  |  |  | A (EC1.5<1 μM) | ≥ 350% | B (EC1.5 1-25 μM) | ≥ 350% | Cc1nn2ccc(-c3ccccc3C(F)(F)F)nc2c1C(=O)Nc1cccnc1 [Compound 549] | 
 |  |  |  | A (EC1.5<1 μM) | ≥ 350% | A (EC1.5<1 μM) | < 350% | Cc1cc(C)nc(NC(=O)c2cnc3ccc(-c4cccc(OC[C@H](O)CO)c4)nn23)c1 [Compound 591] | 
 |  |  |  | A (EC1.5<1 μM) | ≥ 350% | B (EC1.5 1-25 μM) | < 350% | Cc1nc(C(=O)Nc2cnn3ccc(-c4ccccc4C(F)(F)F)nc23)cs1 [Compound 527] | 
 |  |  |  | B (EC1.5 1-25 μM) | < 350% | C (EC1.5>25 μM) | < 350% | Cc1nc2c(C)cc(-c3ccccc3C(F)(F)F)nn2c1NC(=O)c1cccc(O)n1 [Compound 590] | 
B (EC1.5 1-25 μM) | ≥ 350% | B (EC1.5 1-25 μM) | < 350% |  |  |  |  | Cc1nc(C(=O)Nc2cnn3ccc(-c4ccccc4OC(F)(F)F)nc23)cs1 [Compound 752] | 
 |  |  |  | B (EC1.5 1-25 μM) | < 350% | C (EC1.5>25 μM) | < 350% | Cc1cc(NC(=O)c2cnc3ccc(-c4cccc(OCC(O)CO)c4)nn23)cc(C)n1 (centres unmarked) [Compound 418] | 
